Results from patent publication US20220281848A1, “PYRAZOLE-SUBSTITUTED PYRROLIDINONES AS HERBICIDES” (FMC Corporation, priority 2019, published 2022).

Tested on: plants
Assay: Test D pre-emergence, other plants of Tables D1 and D3
Assay type: in vivo
Settings: pre-emergence, 100=total damage, 0=no damage; for ALOMY damage rating / AVEFA damage rating / BEAVA damage rating / BROTE damage rating / BRSNN damage rating / CHEAL damage rating / GALAP damage rating / HORVW damage rating / KCHSC damage rating / LOLPE damage rating / POAAN damage rating / SINAR damage rating / STEME damage rating / VERPE damage rating: 20 DAA
Summary of the method: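 Seeds treated with herbicide safener; sown in soil; glasshouse, 16 h light, 65% humidity. Sprayed day 1 (pre) or ~day 12 (post). Spray in 0.2% v/v adjuvant. Scored 0–100 damage: 20 DAA pre, 15 d post.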

Work on `CN1CC(c2cc(Cl)n(C)n2)C(C(=O)Nc2ccc(F)c(F)c2F)C1=O` (racemic) [Compound 31] yielded an ALOMY damage rating (Rates 15) of 0, an ALOMY damage rating (Rates 30) of 0 and an AVEFA damage rating (Rates 15) of 0. For the same compound, the AVEFA damage rating (Rates 30) was 0, the BEAVA damage rating (Rates 15) was 0 and the BEAVA damage rating (Rates 30) was 0. It also gave a BROTE damage rating (Rates 15) of 0, a BROTE damage rating (Rates 30) of 0 and a BRSNN damage rating (Rates 15) of 0. It also gave a BRSNN damage rating (Rates 30) of 0, a CHEAL damage rating (Rates 15) of 0 and a CHEAL damage rating (Rates 30) of 0. It also gave a CHEAL damage rating (Rates 60) of 0, a CHEAL damage rating (Rates 130) of 0 and a CHEAL damage rating (Rates 250) of 0. The CHEAL damage rating (Rates 500) was 20, the GALAP damage rating (Rates 15) was 0 and the GALAP damage rating (Rates 30) was 0. The GALAP damage rating (Rates 60) was 0, the GALAP damage rating (Rates 130) was 0 and the GALAP damage rating (Rates 250) was 0. It also gave a GALAP damage rating (Rates 500) of 0, an HORVW damage rating (Rates 15) of 0 and an HORVW damage rating (Rates 30) of 0. For the same compound, the KCHSC damage rating (Rates 15) was 0, the KCHSC damage rating (Rates 30) was 0 and the KCHSC damage rating (Rates 60) was 0. It also gave a KCHSC damage rating (Rates 130) of 0, a KCHSC damage rating (Rates 250) of 0 and a KCHSC damage rating (Rates 500) of 0. It also gave an LOLPE damage rating (Rates 15) of 0, an LOLPE damage rating (Rates 30) of 0 and an LOLPE damage rating (Rates 60) of 0. For the same compound, the LOLPE damage rating (Rates 130) was 0, the LOLPE damage rating (Rates 250) was 0 and the LOLPE damage rating (Rates 500) was 0. It also gave a POAAN damage rating (Rates 15) of 0, a POAAN damage rating (Rates 30) of 0 and a POAAN damage rating (Rates 60) of 0. For the same compound, the POAAN damage rating (Rates 130) was 0, the POAAN damage rating (Rates 250) was 0 and the POAAN damage rating (Rates 500) was 10. The SINAR damage rating (Rates 15) was 0, the SINAR damage rating (Rates 30) was 0 and the STEME damage rating (Rates 15) was 0. For the same compound, the STEME damage rating (Rates 30) was 0, the STEME damage rating (Rates 60) was 0 and the STEME damage rating (Rates 130) was 0. For the same compound, the STEME damage rating (Rates 250) was 0, the STEME damage rating (Rates 500) was 10 and the VERPE damage rating (Rates 15) was 0. The VERPE damage rating (Rates 30) was 0, the VERPE damage rating (Rates 60) was 0 and the VERPE damage rating (Rates 130) was 0. For the same compound, the VERPE damage rating (Rates 250) was 30, the VERPE damage rating (Rates 500) was 50 and the “damage to plant, ALOMY” value (rate 60, 20 DAA) was 0. For the same compound, the “damage to plant, AVEFA” value (rate 60, 20 DAA) was 0, the “damage to plant, BEAVA” value (rate 60, 20 DAA) was 0 and the “damage to plant, BROTE” value (rate 60, 20 DAA) was 0. For the same compound, the “damage to plant, BRSNN” value (rate 60, 20 DAA) was 0, the “damage to plant, HORVW” value (rate 60, 20 DAA) was 0 and the “damage to plant, SINAR” value (rate 60, 20 DAA) was 0. The “damage to plant, ALOMY” value (rate 130, 20 DAA) was 0, the “damage to plant, AVEFA” value (rate 130, 20 DAA) was 0 and the “damage to plant, BEAVA” value (rate 130, 20 DAA) was 0. The “damage to plant, BROTE” value (rate 130, 20 DAA) was 0, the “damage to plant, BRSNN” value (rate 130, 20 DAA) was 0 and the “damage to plant, HORVW” value (rate 130, 20 DAA) was 0. For the same compound, the “damage to plant, SINAR” value (rate 130, 20 DAA) was 0, the “damage to plant, ALOMY” value (rate 250, 20 DAA) was 0 and the “damage to plant, AVEFA” value (rate 250, 20 DAA) was 0. The “damage to plant, BEAVA” value (rate 250, 20 DAA) was 0, the “damage to plant, BROTE” value (rate 250, 20 DAA) was 0 and the “damage to plant, BRSNN” value (rate 250, 20 DAA) was 0. The “damage to plant, HORVW” value (rate 250, 20 DAA) was 0, the “damage to plant, SINAR” value (rate 250, 20 DAA) was 0 and the “damage to plant, ALOMY” value (rate 500, 20 DAA) was 0. The “damage to plant, AVEFA” value (rate 500, 20 DAA) was 10, the “damage to plant, BEAVA” value (rate 500, 20 DAA) was 0 and the “damage to plant, BROTE” value (rate 500, 20 DAA) was 10. For the same compound, the “damage to plant, BRSNN” value (rate 500, 20 DAA) was 0, the “damage to plant, HORVW” value (rate 500, 20 DAA) was 20 and the “damage to plant, SINAR” value (rate 500, 20 DAA) was 20.
